Data as given in US12577281B2, “Mitochondrial-derived peptides and analogs thereof for use as a therapy for age-related diseases including cancer” (University of Southern California, priority 2020, dated 2026).
Where a SMILES comes first, the peptide text is derived from it.

Assay: Safety of NOSH in mice
Assay type: in vivo
Method: FIG. 1. NOSH (ND-One short open reading frames (sORF) in Humans) is safe in mice. NOSH has a sequence of […] (SEQ ID NO:215).
NOSH was safe in mice. Further, NOSH increased autophagy. The level of autophagy-related protein microtubule-associated protein 1 light chain 3 (LC3) was increased in PC3 cells treated with 5 μM NOSH for 6 h. FIG. 2.

## CC[C@H](C)[C@H](NC(=O)[C@H](CC(C)C)NC(=O)[C@@H](NC(=O)[C@H](CC(C)C)NC(=O)[C@H](CCSC)NC(=O)[C@H](CC(C)C)NC(=O)[C@H](CO)NC(=O)[C@H](CC(C)C)NC(=O)[C@H](CO)NC(=O)[C@H](CCCNC(=N)N)NC(=O)CNC(=O)[C@H](CO)NC(=O)[C@H](CCCNC(=N)N)NC(=O)[C@H](CCCNC(=N)N)NC(=O)[C@@H](NC(=O)[C@H](C)NC(=O)[C@H](CC(C)C)NC(=O)[C@H](CC(C)C)NC(=O)[C@H](CC(C)C)NC(=O)CNC(=O)[C@H](Cc1ccccc1)NC(=O)[C@H](CC(C)C)NC(=O)[C@H](CCCNC(=N)N)NC(=O)[C@@H](N)CCSC)C(C)C)[C@@H](C)O)C(=O)N[C@@H](CCCNC(=N)N)C(=O)NCC(=O)N[C@@H](CC(C)C)C(=O)N[C@@H](CO)C(=O)N[C@@H](CCCCN)C(=O)N[C@@H](CCCNC(=N)N)C(=O)N[C@@H](CC(C)C)C(=O)NCC(=O)O [NOSH] (H-MRLFGLLLAVRRSGRSLSLMLTLIRGLSKRLG-OH)
  safety in mice: safe
